Tested on: HCV genotype 1b replicon cells (Huh-luc)
Assay: HCV 1b replicon combination study (luciferase, MacSynergy II analysis)
Format: cell-based
Conditions: for Interaction: combination of Compound 1 and Compound 2, MacSynergy II
Procedure: HCV genotype 1b replicon cells (Huh-luc) were obtained from Reblikon (Mainz, Germany). The replicon in these cells is designated I389luc-ubi-neo/NS3-3′/ET and encodes a selectable resistance marker (neomycin phosphotransferase) as well as the firefly luciferase reporter gene. Huh-luc cells were maintained in Dulbecco's Modified Eagle's Medium (DMEM; GIBCO, Carlsbad, Calif.) supplemented with 10% fetal bovine serum (FBS; Hyclone, Logan, Utah) and 0.5 mg/mL of G-418 (GIBCO). Cells were passaged twice a week and maintained at subconfluent levels.
Replicon cells were seeded in 96-well plates at a density of 5×10^3 cells per well in 100 μL of DMEM culture medium, excluding G-418. Compounds 1 and 2 were serially diluted 1:3 in 100% DMSO (Sigma). These serial dilutions were added to the cells at a 1:200 dilution to achieve a final concentration of 0.5% DMSO in a total volume of 200 μL. Plates were incubated at 37° C. for 3 days, after which culture media were removed and cells were lysed and assayed for luciferase activity using a commercial luciferase assay (Promega, Madison, Wis.). HCV replication levels in drug-treated samples were expressed as a percentage of those in untreated controls (defined as 100%), and data were fit to the logistic dose response equation y=a/(1+(x/b)c) using XLFit4 software (IDBS, Emeryville, Calif.). EC50 values were calculated from the resulting equations as described previously (Delaney, W. E., et al., Antimicrobial Agents Chemotherapy, 45(6):1705-1713 (2001)). Replicon cells were seeded in 96-well plates at a density of 5×10^3 cells per well in 100 μL of culture medium. Compounds 1 and 2 were serially diluted in 100% DMSO as described above and added in a matrix format to 96-well plates, achieving a defined set of different drug concentrations and ratios in a final volume of 200 μL and a final DMSO concentration of 0.5%. […] Cells were incubated for three days and analyzed for luciferase expression as indicated above. […]
The calculated volumes of surface deviations are expressed in nM^2%. […]

Row | SMILES | Interaction | Antagonism Volume (in combination with Compound 1, 3 days, mean ± SD of two or three independent experiments in triplicate) [nM^2]
1 | Fc1ccccc1-c1nc2ccn(Cc3ccc(-c4ccc(C(F)(F)F)cc4C(F)(F)F)nn3)cc-2n1 [Compound 1, 5-({6-[2,4-bis(trifluoromethyl)phenyl]pyridazin-3-yl}methyl)-2-(2-fluorophenyl)-5H-imidazo[4,5-c]pyridine] | moderate synergistic interaction | 
2 | CC(C)(C)NC(=O)N[C@H](C(=O)N1C[C@H]2[C@@H]([C@H]1C(=O)NC(CC1CCC1)C(=O)C(N)=O)C2(C)C)C(C)(C)C (stereo partly drawn) [Compound 2, (1R,2S,5S)-3-[N-(N-tert-Butylcarbamoyl)-3-methyl-L-valyl]-N-(2-cyclobutyl-1-oxamoylethyl)-6,6-dimethyl-3-azabicyclo[3.1.0]hexane-2-carboxamide] | Moderate synergy | −8.0 ± 13.6
